Measured values as given in patent US7495104B2, “Quinoline or quinazoline derivatives inhibiting auto-phosphorylation of fibroblast growth factor receptors” (Kirin Beer Kabushiki Kaisha, priority 2001, dated 2009).

Target: Bek (Homo sapiens, UniProt P21802)
Assay: Inhibitory activity against Bek-autophosphorylation using ELISA method in OCUM-2MD3 cells
Format: cell-based
Conditions: 1 hr with compound, read-out: IC50 (concentration necessary for inhibiting 50% of Bek-phosphorylation)
Procedure: Human scirrhus stomach cancer cells OCUM-2MD3 (kindly provided by Dr. Kosei Hirakawa, Osaka City University) were cultured in an RPMI medium containing 10% fetal calf serum (purchased from ICN) within a 5% carbon dioxide incubator until 50 to 90% confluent. The harvested cells were seeded onto 96-well flat-bottom plate in RPMI containing 0.1% fetal calf serum at 3.5×10^4 cells per well, followed by cultivation at 37° C. overnight. A solution of the test compound in dimethyl sulfoxide was added to each well, and the cultivation was continued at 37° C. for additional one hr. The medium was removed, and 50 μl of lysis buffer (20 mM HEPES (pH 7.4), 150 mM NaCl, 0.2% Triton X-100, 10% glycerol, 5 mM sodium orthovanadylate, 5 mM disodium ethylenediaminetetraacetate, and 2 mM Na4P2O7) was then added thereto. The mixture was shaken at 4° C. for 2 hr to prepare cell extracts.
Separately, phosphate buffered saline (50 μl, pH 7.4) containing 5 μg/ml of anti-phospho-tyrosine antibody (PY20; purchased from Transduction Laboratories) was added to a microplate for ELISA (Maxisorp; purchased from NUNC), followed by standing at 4° C. overnight to form a solid phase on the wells. After washing of the plate, 300 μl of a blocking solution was added, followed by standing at room temperature for 2 hr to perform blocking. After washing, the whole quantity of the cell extracts was transferred to the wells, and the plate was then allowed to stand at 4° C. overnight. After washing, an anti-Bek antibody (Bek (C-17), purchased from Santa Cruz Biotechnology) or Anti-Human K-sam Rabbit IgG Affinity Purity (purchased from IBL Co., Ltd.) was allowed to react at room temperature for one hr, and, after washing, a peroxidase-labeled anti-rabbit Ig antibody (purchased from Amersham) was allowed to react at room temperature for one hr. After washing, a chromophoric substrate for peroxidase (purchased from Sumitomo Bakelite Co., Ltd.) was added thereto to initiate a reaction. After a suitable level of color development, a reaction termination solution was added to stop the reaction, and the absorbance at 450 nm was measured with a microplate reader. The Bek-phosphorylation activity for each well was determined by presuming the absorbance without the addition of the medicament to be 100% Bek-phosphorylation activity and the absorbance with the addition of a large excess of a positive control (N-{4-[(6,7-dimethoxy-4-quinolyl)oxy]phenyl}-N′-(3,3-dimethylbutyl)urea, 1000 nM) to be 0% Bek-phosphorylation activity. The concentration of the test compound was varied on several levels, the Bek-phosphorylation inhibitory activity was determined for each case, and the concentration of the test compound necessary for inhibiting 50% of Bek-phosphorylation (IC50) was calculated.

Chain of Bek (P21802 431-767 limits assumed): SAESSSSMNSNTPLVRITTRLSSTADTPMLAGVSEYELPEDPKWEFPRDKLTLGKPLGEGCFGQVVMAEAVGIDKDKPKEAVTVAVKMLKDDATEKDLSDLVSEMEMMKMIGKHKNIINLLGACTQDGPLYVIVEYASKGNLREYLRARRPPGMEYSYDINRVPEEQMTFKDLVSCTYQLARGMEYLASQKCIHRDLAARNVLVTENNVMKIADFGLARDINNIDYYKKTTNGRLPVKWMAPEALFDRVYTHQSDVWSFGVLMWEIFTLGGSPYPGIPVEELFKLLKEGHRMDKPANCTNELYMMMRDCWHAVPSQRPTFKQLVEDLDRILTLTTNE

Row | IC50 | SMILES
1 | 187 nM | COc1cc2c(Oc3ccc(Nc4ccc(C(C)(C)C)cc4)cc3)ccnc2cc1OCC(O)CN1CCCC1 (stereo not drawn) [Compound 61, 1-{4-[4-(4-Tert-butyl-phenylamino)phenoxy]-6-methoxyquinolin-7-yloxy}-3-pyrrolidin-1-ylpropan-2-ol]
2 | 249 nM | COc1cc2c(Oc3ccc(Nc4ccc(C(C)(C)C)cc4)cc3)ccnc2cc1OCC(O)CN1CCCCC1 (stereo not drawn) [Compound 62, 1-{4-[4-(4-Tert-butyl-phenylamino)phenoxy]-6-methoxyquinolin-7-yloxy}-3-piperidin-1-ylpropan-2-ol]
3 | 247 nM | COc1cc2c(Oc3ccc(Nc4ccc(C(C)(C)C)cc4)cc3)ccnc2cc1OCC(O)CN1CCCCCC1 (stereo not drawn) [Compound 63, 1-Azepan-1-yl-3-{4-[4-(4-tert-butylphenylamino)phenoxy]-6-methoxyquinolin-7-yloxy}propan-2-ol]
4 | 178 nM | COc1cc2c(Oc3ccc(Nc4ccc(C(C)(C)C)cc4)cc3)ccnc2cc1OCC(O)CN1CCN(C)CC1 (stereo not drawn) [Compound 64, 1-{4-[4-(4-Tert-butylphenylamino)phenoxy]-6-methoxyquinolin-7-yloxy}-3-(4-methylpiperazin-1-yl)propan-2-ol]
5 | 184 nM | COc1cc2c(Oc3ccc(Nc4ccc(C(C)(C)C)cc4)cc3)ccnc2cc1OCC(O)CN1CCCN(C)CC1 (stereo not drawn) [Compound 65, 1-{4-[4-(4-Tert-butylphenylamino)phenoxy]-6-methoxyquinolin-7-yloxy}-3-(4-methyl-[1,4]diazepin-1-yl)propan-2-ol]
6 | 199 nM | CCNCC(O)COc1cc2nccc(Oc3ccc(Nc4ccc(C(C)(C)C)cc4)cc3)c2cc1OC (stereo not drawn) [Compound 66, 1-{4-[4-(4-Tert-butylphenylamino)phenoxy]-6-methoxyquinolin-7-yloxy}-3-ethylaminopropan-2-ol]
7 | 189 nM | COc1cc2c(Oc3ccc(Nc4ccc(C(C)(C)C)cc4)cc3)ccnc2cc1OCC(O)CN(C)C (stereo not drawn) [Compound 67, 1-{4-[4-(4-Tert-butylphenylamino)phenoxy]-6-methoxyquinolin-7-yloxy}-3-dimethylaminopropan-2-ol]
8 | 248 nM | COc1cc2c(Oc3ccc(Nc4ccc(C(C)(C)C)cc4)cc3)ccnc2cc1OCCN1C[C@@H](C)O[C@@H](C)C1 [Compound 68, (4-Tert-butylphenyl)-(4-{7-[2-(2,6-dimethylmorpholin-4-yl)ethoxy]-6-methoxyquinolin-4-yloxy}phenyl)amine]
9 | 248 nM | COc1cc2c(Oc3ccc(Nc4ccc(C(C)(C)C)cc4)cc3)ccnc2cc1OCCCN1C[C@@H](C)O[C@@H](C)C1 [Compound 69, (4-Tert-butylphenyl)-(4-{7-[3-(2,6-dimethylmorpholin-4-yl)propoxy]-6-methoxyquinolin-4-yloxy}phenyl)amine]
10 | 68.5 nM | COc1cc2c(Oc3ccc(Nc4ccc(C(C)(C)C)cc4)cc3)ccnc2cc1OC[C@H](O)CN1CCOCC1 [Compound 70, (R)-1-{4-[4-(4-Tert-butylphenylamino)phenoxy]-6-methoxyquinolin-7-yloxy}-3-morpholin-4-ylpropan-2-ol]
11 | 61.1 nM | COc1cc2c(Oc3ccc(Nc4ccc(C(C)(C)C)cc4)cc3)ccnc2cc1OC[C@@H](O)CN1CCOCC1 [Compound 71, (s)-1-{4-[4-(4-Tert-butylphenylamino)phenoxy]-6-methoxyquinolin-7-yloxy}-3-morpholin-4-ylpropan-2-ol]
12 | 836 nM | COc1cc2ncnc(Oc3ccc(Nc4ccc(C(C)C)cc4)cc3)c2cc1OC [Compound 72, [4-(6,7-Dimethoxyquinazolin-4-yloxy)phenyl]-(4-isopropyl-phenyl)amine]
13 | 3510 nM | COc1cc2nccc(Oc3ccc(Nc4ccsc4)cc3)c2cc1OC [Compound 73, [4-(6,7-Dimethoxyquinolin-4-yloxy)phenyl]thiophen-3-ylamine]
14 | 521 nM | COc1cc2ncnc(Oc3ccc(Nc4ccc(C(C)(C)C)cc4)cc3)c2cc1OC [Compound 74, (4-Tert-butylphenyl)-[4-(6,7-dimethoxyquinazolin-4-yloxy)-phenyl]amine]
15 | 5190 nM | COc1cc2nccc(Oc3ccc(Nc4nc(C)c(C)s4)cc3)c2cc1OC [Compound 75, [4-(6,7-Dimethoxyquinolin-4-yloxy)phenyl]-(4,5-dimethylthiazol-2-yl)amine]
16 | 7560 nM | COc1cc2nccc(Oc3ccc(Nc4nn(-c5ccccc5)c(=O)o4)cc3)c2cc1OC [Compound 76, 5-[4-(6,7-Dimethoxyquinolin-4-yloxy)phenylamino]-3-phenyl-3H-[1,3,4]oxazol-2-one]
17 | 3450 nM | COc1cc2nccc(Oc3ccc(NC4CCC(C(C)(C)C)CC4)cc3)c2cc1OC (stereo not drawn) [Compound 77, (4-Tert-butylcyclohexyl)-[4-(6,7-dimethoxyquinolin-4-yloxy)phenyl]amine]
18 | 274 nM | COc1cc2c(Oc3ccc(Nc4ccc(C(C)(C)C)cc4)cc3)ncnc2cc1OCCN1CCOCC1 [Compound 78, (4-Tert-butylphenyl)-{4-[6-methoxy-7-(2-morpholin-4-ylethoxy)quinazolin-4-yloxy]phenyl}amine]
19 | 159 nM | COc1cc2c(Oc3ccc(Nc4ccc(C(C)(C)C)cc4)c(F)c3)ccnc2cc1OCCN1CCOCC1 [Compound 79, (4-Tert-butylphenyl)-{2-fluoro-4-[6-methoxy-7-(2-morpholin-4-ylethoxy)quinolin-4-yloxy]phenyl}amine]
20 | 10.1 nM | COc1cc2c(Oc3ccc(Nc4ccc(C(C)(C)C)cc4)cc3)ccnc2cc1OCCN1CCC(CO)CC1 [Compound 81, [1-(2-{4-[4-(4-Tert-butylphenylamino)phenoxy]-6-methoxy-quinolin-7-yloxy}ethyl)piperidin-4-yl]methanol]
21 | 70.1 nM | COc1cc2c(Oc3ccc(Nc4ccc(C(C)(C)C)cc4)cc3)ccnc2cc1OCCN1CCC(O)CC1 [Compound 82, 1-(2-{4-[4-(4-Tert-butylphenylamino)phenoxy]-6-methoxy-quinolin-7-yloxy}ethyl)piperidin-4-ol]
22 | < 10 nM | COc1cc2c(Oc3ccc(NC(=O)NCCC(C)(C)C)cc3)ccnc2cc1OCCCN1CCC(O)CC1 [Compound 96, 1-(3,3-Dimethyl-butyl)-3-(4-{7-[3-(4-hydroxy-piperidin-1-yl)-propoxy]-6-methoxy-quinolin-4-yloxy}-phenyl)-urea]
23 | < 10 nM | COc1cc2nccc(Oc3ccc(NC(=O)NCCC(C)(C)C)cc3)c2cc1OC [Compound 101, 1-[4-(6,7-Dimethoxy-quinolin-4-yloxy)-phenyl]-3-(3,3-dimethyl-butyl)-urea]
24 | 27.8 nM | COc1cc2nccc(Oc3ccc(NC(=O)NCCC(C)(C)C)cc3F)c2cc1OC [Compound 102, 1-[4-(6,7-Dimethoxy-quinolin-4-yloxy)-3-fluorophenyl]-3-(3,3-dimethyl-butyl)-urea]
25 | 29.8 nM | COc1cc2nccc(Oc3ccc(NC(=O)NCCC(C)(C)C)c(Cl)c3)c2cc1OC [Compound 103, 1-[2-Chloro-4-(6,7-dimethoxyquinolin-4-yloxy)-phenyl]-3-(3,3-dimethyl-butyl)-urea]
26 | 30.6 nM | COc1cc2nccc(Oc3ccc(NC(=O)NC4CC(C)CC(C)(C)C4)cc3)c2cc1OC (stereo not drawn) [Compound 105, 1-[4-(6,7-Dimethoxy-quinolin-4-yloxy)-phenyl]-3-(3,3,5-trimethyl-cyclohexyl)-urea]

Row | SMILES | IC50
27 | COc1cc2c(Oc3ccc(Nc4ccc(C(C)(C)C)cc4)cc3)ccnc2cc1OCCC(C)N1CCOCC1 (stereo not drawn) [Compound 80, (4-Tert-butylphenyl)-{4-[6-methoxy-7-(3-morpholin-4-ylbutoxy)-quinolin-4-yloxy]phenyl}amine] | 151 nM
